The text below walks through data of patent US20220061324A1, “PESTICIDALLY ACTIVE HETEROCYCLIC DERIVATIVES WITH SULFUR CONTAINING SUBSTITUENTS” (SYNGENTA CROP PROTECTION AG, priority 2018, published 2022).

Series [1] has as its system Diabrotica balteata (Corn Root Worm). As to the kind of experiment: Activity against Diabrotica balteata (corn root worm), maize sprouts sprayed. The series is classed as in vivo. Particulars: 96 h, read-out: effect in at least one of the two categories (mortality or growth inhibition); for percent effect (mortality or growth inhibition) at 200 ppm: application rate 200 ppm, L2 larvae, 4 days after infestation. The method, then: Example B1: Activity Against Diabrotica balteata (Corn Root Worm)
Maize sprouts placed onto an agar layer in 24-well microtiter plates were treated with aqueous test solutions prepared from 10,000 ppm DMSO stock solutions by spraying. After drying, the plates were infested with L2 larvae (6 to 10 per well). The samples were assessed for mortality and growth inhibition in comparison to untreated samples 4 days after infestation.

Series [2] concerns Euschistus heros (Neotropical Brown Stink Bug). As to the kind of experiment: Activity against Euschistus heros (neotropical brown stink bug), soybean leaves sprayed. It is filed as in vivo. To be noted: 120 h, read-out: effect in at least one of the two categories (mortality or growth inhibition); for percent effect (mortality or growth inhibition) at 200 ppm: application rate 200 ppm, N2 nymphs, 5 days after infestation. The method, then: Example B2: Activity Against Euschistus heros (Neotropical Brown Stink Bug)
Soybean leaves on agar in 24-well microtiter plates were sprayed with aqueous test solutions prepared from 10,000 ppm DMSO stock solutions. After drying the leaves were infested with N2 nymphs. The samples were assessed for mortality and growth inhibition in comparison to untreated samples 5 days after infestation.

The subject of series [3] is Plutella xylostella (Diamond Back Moth). As to the kind of experiment: Activity against Plutella xylostella (diamond back moth), artificial diet. It is filed as in vivo. Particulars: 192 h, read-out: effect in at least one of the two categories (mortality or growth inhibition); for percent effect (mortality or growth inhibition) at 200 ppm: application rate 200 ppm, eggs, 8 days after infestation. The method, then: Example B3: Activity Against Plutella xylostella (Diamond Back Moth)
24-well microtiter plates with artificial diet were treated with aqueous test solutions prepared from 10,000 ppm DMSO stock solutions by pipetting. After drying, Plutella eggs were pipetted through a plastic stencil onto a gel blotting paper and the plate was closed with it. The samples were assessed for mortality and growth inhibition in comparison to untreated samples 8 days after infestation.

Series [4] relates to Myzus persicae (Green Peach Aphid). As to the kind of experiment: Activity against Myzus persicae (green peach aphid), feeding/contact activity. It is filed as in vivo. To be noted: 144 h. The method, then:
Example B4: Activity Against Myzus persicae (Green Peach Aphid) Feeding/Contact Activity
Sunflower leaf discs were placed onto agar in a 24-well microtiter plate and sprayed with aqueous test solutions prepared from 10,000 ppm DMSO stock solutions. After drying, the leaf discs were infested with an aphid population of mixed ages. The samples were assessed for mortality 6 days after infestation.

For series [5], the system named is Spodoptera littoralis (Egyptian Cotton Leaf Worm). As to the kind of experiment: Activity against Spodoptera littoralis (Egyptian cotton leaf worm), cotton leaf discs. It is filed as in vivo. Particulars: foliar, 72 h, read-out: control (mortality, anti-feedant effect or growth inhibition). The method, then:
Example B5: Activity Against Spodoptera littoralis (Egyptian Cotton Leaf Worm)
Cotton leaf discs were placed onto agar in 24-well microtiter plates and sprayed with aqueous test solutions prepared from 10,000 ppm DMSO stock solutions. After drying the leaf discs were infested with five L1 larvae. The samples were assessed for mortality, anti-feeding effect, and growth inhibition in comparison to untreated samples 3 days after infestation. Control of Spodoptera littoralis by a test sample is given when at least one of the categories mortality, anti-feedant effect, and growth inhibition is higher than the untreated sample.

For series [6], the system named is Frankliniella occidentalis (Western Flower Thrips). As to the kind of experiment: Activity against Frankliniella occidentalis (western flower thrips), sunflower leaf discs. The series is classed as in vivo. Particulars: foliar, 168 h, application rate 200 ppm, mixed ages, 7 days after infestation. The method, then:
Example B7: Activity Against Frankliniella occidentalis (Western Flower Thrips)
Sunflower leaf discs were placed on agar in 24-well microtiter plates and sprayed with aqueous test solutions prepared from 10,000 DMSO stock solutions. After drying the leaf discs were infested with a Frankliniella population of mixed ages. The samples were assessed for mortality 7 days after infestation.

The subject of series [7] is Bemisia tabaci (Cotton White Fly). As to the kind of experiment: Activity against Bemisia tabaci (cotton white fly), cotton leaf discs. It is filed as in vivo. To be noted: foliar, 144 h, application rate 200 ppm, adult white flies, 6 days after incubation. The method, then: Example B6: Activity Against Bemisia tabaci (Cotton White Fly)
Cotton leaf discs were placed on agar in 24-well microtiter plates and sprayed with aqueous test solutions prepared from 10,000 ppm DMSO stock solutions. After drying the leaf discs were infested with adult white flies. The samples were checked for mortality 6 days after incubation.

Setting [8] is: application rate 200 ppm, feeding/contact, mixed ages, 6 days after infestation, read-out: mortality.
Setting [9] is: application rate 200 ppm, L1 larvae, 3 days after infestation.

Where two headings read alike, the source gives them in different places. Bounds are passed on as bounds.

One may read the melting point as the temperature of the solid-liquid transition. The molecule `CCS(=O)(=O)c1ccc(Cl)nc1-c1ncc2c(OCC(F)(F)C(F)(F)F)nccn12` registered a melting point of 140 to 143 °C.
A word on the mortality: it is the share of the test organisms that died. As for `CCS(=O)(=O)c1cccnc1-c1ncc2c(OCC(F)(F)C(F)(F)F)nccn12` [Compound P8, 3-(3-ethylsulfonyl-2-pyridyl)-8-(2,2,3,3,3-pentafluoropropoxy)imi-dazo[1,5-a]pyrazine], the percent control (mortality or growth inhibition) at 200 ppm in series [1], in series [2] and in series [3] was no less than 80% in each case. For the same molecule, the mortality at 200 ppm in series [4] was no less than 80%. Further, the percent control (mortality, anti-feedant effect or growth inhibition) at 200 ppm in series [5] is no less than 80%.
For the molecule `CCS(=O)(=O)c1ccc(NC)nc1-c1ncc2c(OCC(F)(F)C(F)(F)F)nccn12` [Compound P10, 5-ethylsulfonyl-N-methyl-6-[8-(2,2,3,3,3-penta-fluoropropoxy)imidazo [1,5-a]pyrazin-3-yl]pyri-din-2-amine], the percent effect (mortality or growth inhibition) at 200 ppm in series [1], in series [2] and in series [3] was no less than 80% in each case. Also, in series [4] (setting [8]), the mortality at 200 ppm was no less than 80%. Also, the percent control (mortality, anti-feedant effect or growth inhibition) at 200 ppm in series [5] (setting [9]) was no less than 80%.
With `CCS(=O)(=O)c1ccc(N(C)C(C)=O)nc1-c1ncc2c(OCC(F)(F)C(F)(F)F)nccn12` [Compound P11, N-[5-ethylsulfonyl-6-[8-(2,2,3,3,3-penta-fluoropropoxy)imidazo [1,5-a]pyrazin-3-yl]-2-pyridyl]-N-methyl-acetamide], the percent effect (mortality or growth inhibition) at 200 ppm in series [1], in series [2] and in series [3] was no less than 80% in each case. For the same molecule, the mortality at 200 ppm in series [4] (setting [8]) and in series [6] was no less than 80% each time. Moreover, the percent control (mortality, anti-feedant effect or growth inhibition) at 200 ppm in series [5] (setting [9]) is no less than 80%.
For the molecule `CCS(=O)(=O)c1ccc(-n2cncn2)nc1-c1ncc2c(OCC(F)(F)C(F)(F)F)nccn12` [Compound P12, 3-[3-ethylsulfonyl-6-(1,2,4-triazol-1-yl)-2-pyridyl]-8-(2,2,3,3,3-penta-fluoropropoxy)imidazo [1,5-a]pyrazine], the percent effect (mortality or growth inhibition) at 200 ppm in series [1], in series [2] and in series [3] was no less than 80% in each case. Further, the mortality at 200 ppm in series [4] (setting [8]) and in series [7] was no less than 80% in each case. Moreover, the percent control (mortality, anti-feedant effect or growth inhibition) at 200 ppm in series [5] (setting [9]) was no less than 80%.
For `CCS(=O)(=O)c1cc(C2(C#N)CC2)cnc1-c1ncc2c(OCC(F)(F)C(F)(F)F)nccn12` [Compound P15, 1-[5-ethylsulfonyl-6-[8-(2,2,3,3,3-penta-fluoropropoxy)imidazo [1,5-a]pyrazin-3-yl]-3-pyridyl]cyclopropane-carbonitrile], the percent effect (mortality or growth inhibition) at 200 ppm in series [1], in series [2] and in series [3] was no less than 80% each time. In addition, the mortality at 200 ppm in series [4] (setting [8]) is no less than 80%. Moreover, the percent control (mortality, anti-feedant effect or growth inhibition) at 200 ppm in series [5] (setting [9]) is no less than 80%.
On to `CCSc1cc(N=S(C)(C)=O)cnc1-c1ncc2c(OCC(F)(F)C(F)(F)F)nccn12` [Compound P17, [5-ethylsulfanyl-6-[8-(2,2,3,3,3-penta-fluoropropoxy)imidazo [1,5-a]pyrazin-3-yl]-3-pyridyl]imino-dimethyl-oxo-λ^6-sulfane], for which the percent effect (mortality or growth inhibition) at 200 ppm in series [1], in series [2] and in series [3] was no less than 80% throughout. In addition, the percent control (mortality, anti-feedant effect or growth inhibition) at 200 ppm in series [5] (setting [9]) is no less than 80%. In series [6], this molecule registered a mortality at 200 ppm of no less than 80%.
As to `CCS(=O)(=O)c1cc(N=S(C)(C)=O)cnc1-c1ncc2c(OCC(F)(F)C(F)(F)F)nccn12` [Compound P18, [5-ethylsulfonyl-6-[8-(2,2,3,3,3-penta-fluoropropoxy)imidazo [1,5-a]pyrazin-3-yl]-3-pyridyl]imino-dimethyl-oxo-λ^6-sulfane], the percent effect (mortality or growth inhibition) at 200 ppm in series [1], in series [2] and in series [3] was no less than 80% each time. Further, the mortality at 200 ppm in series [4] (setting [8]) and in series [6] was no less than 80% throughout. The percent control (mortality, anti-feedant effect or growth inhibition) at 200 ppm in series [5] (setting [9]) is no less than 80%.
Consider `CCS(=O)(=O)c1cc(Oc2ccccn2)cnc1-c1ncc2c(OCC(F)(F)C(F)(F)F)nccn12` [Compound P19, 3-[3-ethylsulfonyl-5-(2-pyridyloxy)-2-pyridyl]-8-(2,2,3,3,3-penta-fluoropropoxy)imidazo [1,5-a]pyrazine], for which the percent effect (mortality or growth inhibition) at 200 ppm in series [1], in series [2] and in series [3] was no less than 80% each time. In addition, the mortality at 200 ppm in series [4] (setting [8]) was no less than 80%. The percent control (mortality, anti-feedant effect or growth inhibition) at 200 ppm in series [5] (setting [9]) is no less than 80%.
With `CCS(=O)(=O)c1cc(C2CC2)cnc1-c1ncc2c(OCC(F)(F)C(F)(F)F)nccn12` [Compound P21, 3-(5-cyclopropyl-3-ethylsulfonyl-2-pyridyl)-8-(2,2,3,3,3-penta-fluoropropoxy)imidazo [1,5-a]pyrazine], the percent effect (mortality or growth inhibition) at 200 ppm in series [1], in series [2] and in series [3] was no less than 80% throughout. The mortality at 200 ppm in series [4] (setting [8]) is no less than 80%. Moreover, in series [5] (setting [9]), the percent control (mortality, anti-feedant effect or growth inhibition) at 200 ppm was no less than 80%.
Take `CCS(=O)(=O)c1ccc(-c2ncccn2)nc1-c1ncc2c(OCC(F)(F)C(F)(F)F)nccn12` [Compound P25, 3-(3-ethylsulfonyl-6-pyrimidin-2-yl-2-pyridyl)-8-(2,2,3,3,3-penta-fluoropropoxy)imidazo [1,5-a]pyrazine]: the percent effect (mortality or growth inhibition) at 200 ppm in series [1], in series [2] and in series [3] was no less than 80% in each case. For the same molecule, the mortality at 200 ppm in series [4] (setting [8]) is no less than 80%. For the same molecule, in series [5] (setting [9]), the percent control (mortality, anti-feedant effect or growth inhibition) at 200 ppm is no less than 80%.
Consider `CCS(=O)(=O)c1cc(OC(C)(C)C#N)cnc1-c1ncc2c(OCC(F)(F)C(F)(F)F)nccn12` [Compound P51, 2-[[5-ethylsulfonyl-6-[8-(2,2,3,3,3-pentafluoropropoxy)imidazo [1,5-a]pyrazin-3-yl]-3-pyridyl]oxy]-2-methyl-propanenitrile], for which the percent effect (mortality or growth inhibition) at 200 ppm in series [1], in series [2] and in series [3] was no less than 80% throughout. Besides, the mortality at 200 ppm in series [4] (setting [8]), in series [7] and in series [6] was no less than 80% each time. In addition, the percent control (mortality, anti-feedant effect or growth inhibition) at 200 ppm in series [5] (setting [9]) is no less than 80%.
For `CCS(=N)(=O)c1cc(OC(C)(C)C#N)cnc1-c1ncc2c(OCC(F)(F)C(F)(F)F)nccn12` (stereo not drawn) [Compound P52, 2-[[5-(ethylsulfonimidoyl)-6-[8-(2,2,3,3,3-penta-fluoropropoxy)imidazo [1,5-a]pyrazin-3-yl]-3-pyridyl]oxy]-2-methyl-propanenitrile], the percent effect (mortality or growth inhibition) at 200 ppm in series [1] and in series [3] was no less than 80% each time. Also, the mortality at 200 ppm in series [4] (setting [8]) and in series [7] was no less than 80% each time. Further, the percent control (mortality, anti-feedant effect or growth inhibition) at 200 ppm in series [5] (setting [9]) was no less than 80%.
